The target in experiment [1] is T1, human JAK1 (a.a. 837-1142) (Homo sapiens, UniProt P23458).
T1 construct: human JAK1 (a.a. 837-1142); His tag (N); made in house; host or cells: insect cells (baculovirus)
Nature of the experiment: In vitro JAK Kinase Assay (HTRF), JAK1. The experiment is classed as biochemical. The conditions noted are these: 1 mM ATP. As to the method: (§1) The catalytic activity of JAK1 and JAK2 was assayed by measuring the phosphorylation of a biotinylated peptide. The phosphorylated peptide was detected by homogenous time resolved fluorescence (HTRF). […] Reactions were carried out at room temperature for 1 hr and then stopped with 20 μL 45 mM EDTA, 300 nM SA-APC, 6 nM Eu-Py20 in assay buffer (Perkin Elmer, Boston, Mass.). Binding to the Europium labeled antibody took place for 40 minutes and HTRF signal was measured on a Fusion plate reader (Perkin Elmer, Boston, Mass.).

Experiment [2] deals with T2, human JAK2 (a.a. 828-1132) (Homo sapiens, UniProt O60674).
T2 construct: JAK2 (a.a. 828-1132); His tag (N); made in house; host or cells: insect cells (baculovirus)
T2 sequence (O60674 828-1132): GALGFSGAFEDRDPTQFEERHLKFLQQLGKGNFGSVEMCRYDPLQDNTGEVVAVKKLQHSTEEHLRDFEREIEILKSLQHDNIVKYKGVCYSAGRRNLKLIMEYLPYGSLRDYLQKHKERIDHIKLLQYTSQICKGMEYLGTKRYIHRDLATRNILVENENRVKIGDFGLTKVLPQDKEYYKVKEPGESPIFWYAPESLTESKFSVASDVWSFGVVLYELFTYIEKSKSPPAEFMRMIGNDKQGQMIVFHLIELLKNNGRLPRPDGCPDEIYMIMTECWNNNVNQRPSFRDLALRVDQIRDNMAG
The experiment is described as follows: In vitro JAK Kinase Assay (HTRF), JAK2 (for JAK2/JAK1 ratio). In kind it is biochemical. The note with it: ratio of IC50s, 1 mM ATP. The procedure: as §1
Background: Time-resolved FRET reads energy transfer from a long-lived donor to a nearby acceptor.

For experiment [3], the system named is Subjects with metastatic pancreatic adenocarcinoma that is recurrent or treatment refractory. The experiment is described as follows: Randomized, double-blind study of capecitabine + ruxolitinib phosphate vs capecitabine + placebo, survival by baseline CRP / mGPS. The note with it: for Hazard ratio (Rux/Pbo): Cox regression with formal interaction testing; for Active vs Control Hazard Ratio: ruxolitinib vs placebo; for Number of Subjects with Disease Progression, Observed: progression-free survival (death or progressive disease by RECIST 1.1).
Description: Baseline C-reactive protein (CRP) levels were measured for each patient prior to treatment in Arm 1 and Arm 2. Serum CRP concentrations were measured by RMB (RBM multiplexed Luminex®) commercial assay (Myriad RBM). […] The baseline CRP level was calculated on a per patient basis. The patients comprised two groups. Group 1 included all patients who were randomized and took Study Drug. […] For Group 1, the CRP level was the last tested CRP level taken before first dose of Study Drug. For Group 2, the last available value of CRP was taken, if available, for example from screening procedures. With baseline CRP levels for all patients, the median was calculated using normal statistical methods known to one skilled in the art.

Setting [4] is: Cox regression analysis of overall survival using baseline predictors, CRP > 13 mg/L, ruxolitinib arm.
Where [5] appears, read: overall survival, C-Reactive Protein > 13 (μg/mL), Intent-to-Treat, capecitabine + ruxolitinib arm, N = 31.
[6] abbreviates: overall survival, C-Reactive Protein > 13 (μg/mL), ruxolitinib arm, N = 31.
[7] abbreviates: overall survival, C-Reactive Protein ≦ 13 (μg/mL), Intent-to-Treat, capecitabine + ruxolitinib arm, N = 28.
Where [8] appears, read: overall survival, C-Reactive Protein ≦ 13 (μg/mL), ruxolitinib arm, N = 28.
Where [9] appears, read: patients with CRP<13 mg/L, ruxolitinib group.
The mark [10] stands for this setting: patients with CRP>13 mg/L, ruxolitinib group.
[11] abbreviates: progression-free survival, Table 3, C-Reactive Protein ≦ 13 (μg/mL), ruxolitinib arm, N = 28.
Where [12] appears, read: progression-free survival, Table 4, C-Reactive Protein ≦ 13 (μg/mL), ruxolitinib arm, N = 31.

Structures are written as SMILES. “And” between values parts separate entries of the source, which are not always exact repeats. Identical values can stand only once.

T1 sequence (P23458 849-1154): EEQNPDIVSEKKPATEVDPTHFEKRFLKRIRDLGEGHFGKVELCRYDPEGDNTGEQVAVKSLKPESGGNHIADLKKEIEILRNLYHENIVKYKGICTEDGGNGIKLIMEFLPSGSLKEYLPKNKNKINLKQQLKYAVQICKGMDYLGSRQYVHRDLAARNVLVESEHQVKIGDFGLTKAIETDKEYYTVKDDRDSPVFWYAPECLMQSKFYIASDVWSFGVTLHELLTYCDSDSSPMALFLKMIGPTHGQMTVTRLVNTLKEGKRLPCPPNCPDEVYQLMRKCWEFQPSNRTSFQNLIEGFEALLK

As to `N#CC[C@]1(n2cc(-c3ncnc4[nH]ccc34)cn2)C[C@H](N2CCC(Oc3cc(CN4CCC[C@@H]4CO)cc(C(F)(F)F)n3)CC2)C1` [Compound 13, {trans-3-(4-{[4-{[(2R)-2-(hydroxymethyl)pyrrolidin-1-yl]methyl}-6-(trifluoromethyl)pyridin-2-yl]oxy}piperidin-1-yl)-1-[4-(7H-pyrrolo[2,3-d]pyrimidin-4-yl)-1H-pyrazol-1-yl]cyclobutyl}acetonitrile], in experiment [1], the IC50 was less than 10 nM. Moreover, in experiment [2], the JAK2/JAK1 was more than 10.

`N#CCC1(n2cc(-c3ncnc4[nH]ccc34)cn2)CN(C2CCN(C(=O)Nc3ccc(F)cc3C(F)(F)F)CC2)C1` [Compound 8, 4-{3-(Cyanomethyl)-3-[4-(7H-pyrrolo[2,3-d]pyrimidin-4-yl)-1H-pyrazol-1-yl]azetidin-1-yl}-N-[4-fluoro-2-(trifluoromethyl)phenyl]piperidine-1-carboxamide] showed an IC50 in experiment [1] of less than 10 nM. For the same molecule, the JAK2/JAK1 in experiment [2] is on record as more than 10.

On to `N#CCC1(n2cc(-c3ncnc4[nH]ccc34)cn2)CN(C2CCN(C(=O)c3ccnc(C(F)(F)F)c3F)CC2)C1` [Compound 7, {l-{l-[3-Fluoro-2-(trifluoromethyl)isonicotinoyl]piperidin-4-yl}-3-[4-(7H-pyrrolo[2,3-d]pyrimidin-4-yl)-1H-pyrazol-1-yl]azetidin-3-yl}acetonitrile], for which the 50% inhibitory concentration (IC50) in experiment [1] was less than 10 nM. In experiment [2], the JAK2/JAK1 is on record as more than 10.

`N#CCC1(n2cc(-c3ncnc4[nH]ccc34)cn2)CN([C@H]2CC[C@@H](Oc3cc(CCO)nc(C(F)(F)F)n3)CC2)C1` [Compound 18, (l-(cis-4-{[6-(2-hydroxyethyl)-2-(trifluoromethyl)pyrimidin-4-yl]oxy}cyclohexyl)-3-[4-(7H-pyrrolo[2,3-d]pyrimidin-4-yl)-1H-pyrazol-1-yl]azetidin-3-yl}acetonitrile] had a concentration for half-maximal inhibition (IC50) in experiment [1] of less than 10 nM. The JAK2/JAK1 in experiment [2] was more than 10.

Turning to `CC(C)(O)c1cc(O[C@H]2CC[C@@H](N3CC(CC#N)(n4cc(-c5ncnc6[nH]ccc56)cn4)C3)CC2)nc(C(F)(F)F)c1` [Compound 20, {1-(cis-4-{[4-(1-hydroxy-1-methylethyl)-6-(trifluoromethyl)pyridin-2-yl]oxy}cyclohexyl)-3-[4-(7H-pyrrolo[2,3-d]pyrimidin-4-yl)-1H-pyrazol-1-yl]azetidin-3-yl}acetonitrile], the half-maximal inhibitory concentration (IC50) in experiment [1] is less than 10 nM. Also, the JAK2/JAK1 in experiment [2] is more than 10.

The molecule `N#CCC1(n2cc(-c3ncnc4[nH]ccc34)cn2)CN([C@H]2CC[C@@H](Oc3cc(CN4CC[C@H](O)C4)cc(C(F)(F)F)n3)CC2)C1` [Compound 22, {1-(cis-4-{[4-{[(3S)-3-hydroxypyrrolidin-1-yl]methyl}-6-(trifluoromethyl)pyridin-2-yl]oxy}cyclohexyl)-3-[4-(7H-pyrrolo[2,3-d]pyrimidin-4-yl)-1H-pyrazol-1-yl]azetidin-3-yl}acetonitrile] gave a concentration for half-maximal inhibition (IC50) in experiment [1] of less than 10 nM. In addition, the JAK2/JAK1 in experiment [2] is more than 10.

As for `N#CCC(CN1CCN(C(=O)c2ccc(C#N)cc2F)CC1)n1cc(-c2ncnc3[nH]ccc23)cn1` (centres unmarked) [Compound 5, 4-[(4-{3-cyano-2-[4-(7H-pyrrolo[2,3-d]pyrimidin-4-yl)-1H-pyrazol-1-yl]propyl}piperazin-1-yl)carbonyl]-3-fluorobenzonitrile], the 50% inhibitory concentration (IC50) in experiment [1] is less than 10 nM. In experiment [2], the JAK2/JAK1 was more than 10.

In the case of `CCNCc1cc(O[C@H]2CC[C@@H](N3CC(CC#N)(n4cc(-c5ncnc6[nH]ccc56)cn4)C3)CC2)nc(C(F)(F)F)c1` [Compound 19, {l-(cis-4-{[4-[(ethylamino)methyl]-6-(trifluoromethyl)pyridin-2-yl]oxy}cyclohexyl)-3-[4-(7H-pyrrolo[2,3-d]pyrimidin-4-yl)-1H-pyrazol-1-yl]azetidin-3-yl}acetonitrile], the 50% inhibitory concentration (IC50) in experiment [1] is less than 10 nM. Also, in experiment [2], the JAK2/JAK1 is more than 10.

For the molecule `N#CCC1(n2cc(-c3ncnc4[nH]ccc34)cn2)CN([C@H]2CC[C@@H](Oc3cc(CN4CC[C@@H](O)C4)cc(C(F)(F)F)n3)CC2)C1` [Compound 21, {1-(cis-4-{[4-{[(3R)-3-hydroxypyrrolidin-1-yl]methyl}-6-(trifluoromethyl)pyridin-2-yl]oxy}cyclohexyl)-3-[4-(7H-pyrrolo[2,3-d]pyrimidin-4-yl)-1H-pyrazol-1-yl]azetidin-3-yl}acetonitrile], the IC50 in experiment [1] was less than 10 nM. Further, in experiment [2], the JAK2/JAK1 was more than 10.

Take `N#CC[C@H](C1CCCC1)n1cc(-c2ncnc3[nH]ccc23)cn1` [Ruxolitinib, ruxolitinib]: in experiment [3] (setting [4]), the “(%) subjects Censored” value is “(20.0) %”; the “(%) subjects who died, Observed” value is reported as “(80.0) %”; the “Number subjects Censored” value is recorded as 6; the “Number subjects who died, Observed” value is reported as 24. Further, the “Hazard ratio (Rux/Pbo)” value in experiment [3] (subgroup CRP > 13 mg/L) was found to be 0.473. Besides, the “Hazard ratio (Rux/Pbo)” value in experiment [3] (subgroup Karnofsky: 60-80) is given as 0.799. Moreover, the “Hazard ratio (Rux/Pbo)” value in experiment [3] (subgroup Low albumin) came out at 0.618. Besides, the “HR for progression-free survival (PFS)” value in experiment [3] (intent-to-treat analysis including all randomized patients) is 0.75. For the same molecule, in experiment [3] (setting [5]), the “(%) of Subjects Censored” value is reported as “( 19.4%)”; the “(%) of Subjects Died, Observed” value is on record as “( 80.6%)”; the “Number of Subjects Censored” value came out at 6; the “Number of Subjects Died, Observed” value was 25. For the same molecule, in experiment [3] (setting [6]), the “Median Time to Event” value was 83.0 days, the “Month 3 Survival Rate(%)” value is 48.4%, the “Month 6 Survival Rate(%)” value came out at 41.5% and the “Month 9 Survival Rate(%)” value was determined as 16.5%. The “Month 12 Survival Rate(%)” value in experiment [3] (setting [6]) came to 11.0%. For the same molecule, the “Active vs Control Hazard Ratio” value in experiment [3] (overall survival, C-Reactive Protein > 13 (μg/mL), Cox regression) was 0.473. Further, in experiment [3] (setting [7]), the “(%) of Subjects Censored” value is reported as “( 28.6%)”; the “(%) of Subjects Died, Observed” value is “( 71.4%)”; the “Number of Subjects Censored” value was found to be 8; the “Number of Subjects Died, Observed” value is reported as 20. In experiment [3] (setting [8]), the “Median Time to Event” value was 185.5 days, the “Month 3 Survival Rate(%)” value was 82.1%, the “Month 6 Survival Rate(%)” value is recorded as 50.0% and the “Month 9 Survival Rate(%)” value was determined as 37.3%. For the same molecule, the “Month 12 Survival Rate(%)” value in experiment [3] (setting [8]) is listed as 19.9%. In experiment [3] (overall survival, C-Reactive Protein ≦ 13 (μg/mL), Cox regression), the “Active vs Control Hazard Ratio” value is given as 0.887. Moreover, the “Hazard Ratio, Treatment (ruxolitinib vs placebo)” value in experiment [3] (overall survival, CRP > 13 mg/L, Cox regression accounting for baseline characteristics) was 0.50 and 0.501. In experiment [3] (patients with CRP<13 mg/L), the “hazard ratio for PFS” value is listed as 0.82. In experiment [3] (setting [9]), the “probability of PFS at 3 months” value worked out at 39%, the “probability of PFS at 6 months” value is 25% and the “probability of PFS at 9 months” value worked out at 10%. Also, in experiment [3] (patients with CRP>13 mg/L), the “HR for PFS” value was determined as 0.62. Besides, the “proportion showing disease stabilization (RECIST v1.1)” value in experiment [3] (patients with CRP>13 mg/L receiving ruxolitinib with postbaseline assessments (N=19)) was determined as 68.4%. Further, in experiment [3] (setting [10]), the “probability of progression-free survival at 3 months” value was found to be 35%, the “probability of progression-free survival at 6 months” value is 21% and the “probability of progression-free survival at 9 months” value turned out to be 11%. In addition, in experiment [3] (patients with mGPS of 0 (N=51)), the “HR for OS” value worked out at 0.91. Besides, the “HR for OS” value in experiment [3] (patients with mGPS of 1 (N=34)) is given as 0.71. The “HR for OS” value in experiment [3] (patients with mGPS of 2 (N=36)) is 0.49. In addition, in experiment [3] (post-hoc analysis, patients with CRP≦10 mg/L (N=51)), the “HR (survival)” value worked out at 0.91. Further, in experiment [3] (post-hoc analysis, patients with a CRP>10 mg/L (N=70)), the “HR in favor of ruxolitinib (survival)” value is 0.60. Moreover, the “Number of Subjects with Disease Progression, Observed” value in experiment [3] (Table 3, C-Reactive Protein ≦ 13 (μg/mL), ruxolitinib arm, N = 28) is 26. Besides, the “Number of Subjects with Disease Progression, Observed” value in experiment [3] (Table 4, C-Reactive Protein ≦ 13 (μg/mL), ruxolitinib arm, N = 31) was determined as 26. Moreover, in experiment [3] (setting [11]), the “(%) of Subjects Censored” value is “( 7.1%)”; the “(%) of Subjects with Disease Progression, Observed” value was “( 92.9%)”; the “Median Time to Event” value is 80.0 days; the “Month 3 Survival Rate(%)” value was 39.3%. In experiment [3] (setting [11]), the “Month 6 Survival Rate(%)” value turned out to be 25.0%, the “Month 9 Survival Rate(%)” value was 10.0% and the “Number of Subjects Censored” value stood at 2. In addition, the “Active vs Control Hazard Ratio” value in experiment [3] (progression-free survival, Table 3, C-Reactive Protein ≦ 13 (μg/mL)) is given as 0.818. In experiment [3] (setting [12]), the “(%) of Subjects Censored” value is reported as “( 16.1%)”; the “(%) of Subjects with Disease Progression, Observed” value is “( 83.9%)”; the “Median Time to Event” value came to 48.0 days; the “Month 3 Survival Rate(%)” value was found to be 34.5%. Besides, in experiment [3] (setting [12]), the “Month 6 Survival Rate(%)” value worked out at 20.7%, the “Month 9 Survival Rate(%)” value amounted to 11.0%, the “Month 12 Survival Rate(%)” value came out at 0.0% and the “Number of Subjects Censored” value is listed as 5. In addition, the “Active vs Control Hazard Ratio” value in experiment [3] (progression-free survival, Table 4, C-Reactive Protein ≦ 13 (μg/mL)) turned out to be 0.619.

Broadly, the IC50 is the midpoint of a concentration-inhibition curve. Higher therefore signals weaker potency.
